We go through two molecules from the Kinase Knowledgebase extract (Sharma et al. 2016).

pIC50: −log10 of the molar value. Some results are limits rather than exact numbers.

The term pIC50 denotes the negative decadic logarithm of the IC50, by convention in mol/L.

One test has as its target EGFR (UniProt P00533).
The target of the next test is EGFR (mouse) (UniProt P00533). To be noted: nih3t3.
The target in another test is CDK2 (UniProt P24941). The test is described as follows: Enzyme Assay.

EGFR, sequence (P00533 whole entry, looked up): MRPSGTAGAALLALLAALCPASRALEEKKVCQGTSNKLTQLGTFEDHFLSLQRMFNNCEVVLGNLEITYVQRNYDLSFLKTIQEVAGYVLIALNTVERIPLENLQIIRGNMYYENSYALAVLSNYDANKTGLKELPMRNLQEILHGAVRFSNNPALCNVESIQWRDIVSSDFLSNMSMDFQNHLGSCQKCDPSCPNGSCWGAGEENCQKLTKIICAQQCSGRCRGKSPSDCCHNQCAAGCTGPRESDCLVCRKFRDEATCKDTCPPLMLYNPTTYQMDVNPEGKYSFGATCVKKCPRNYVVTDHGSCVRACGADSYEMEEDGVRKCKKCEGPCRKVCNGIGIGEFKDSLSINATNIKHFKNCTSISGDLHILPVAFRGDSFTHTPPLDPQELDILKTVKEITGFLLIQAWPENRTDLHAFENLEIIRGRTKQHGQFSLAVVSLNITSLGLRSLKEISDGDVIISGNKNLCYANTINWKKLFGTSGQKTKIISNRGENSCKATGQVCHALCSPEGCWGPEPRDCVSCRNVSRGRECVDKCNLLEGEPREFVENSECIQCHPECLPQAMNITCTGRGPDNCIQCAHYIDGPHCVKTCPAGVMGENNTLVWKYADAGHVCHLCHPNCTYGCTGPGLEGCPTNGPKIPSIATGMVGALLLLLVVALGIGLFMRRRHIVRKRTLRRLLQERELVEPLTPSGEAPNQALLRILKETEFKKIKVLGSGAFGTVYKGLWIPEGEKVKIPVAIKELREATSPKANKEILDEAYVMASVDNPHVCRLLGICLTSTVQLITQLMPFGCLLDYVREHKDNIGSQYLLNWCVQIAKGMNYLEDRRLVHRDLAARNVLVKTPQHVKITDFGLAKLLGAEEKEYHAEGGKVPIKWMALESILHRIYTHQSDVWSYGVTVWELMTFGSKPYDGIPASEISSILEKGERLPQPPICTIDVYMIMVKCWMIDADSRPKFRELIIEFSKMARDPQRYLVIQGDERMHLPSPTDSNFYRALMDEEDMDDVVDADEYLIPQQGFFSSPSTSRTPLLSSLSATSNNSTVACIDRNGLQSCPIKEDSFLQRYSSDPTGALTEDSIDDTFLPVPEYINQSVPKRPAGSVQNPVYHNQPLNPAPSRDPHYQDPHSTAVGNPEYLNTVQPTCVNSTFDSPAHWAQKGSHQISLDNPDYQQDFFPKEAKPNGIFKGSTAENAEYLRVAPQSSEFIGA

Take `Cc1cc(/C=C2/C(=O)Nc3ccccc32)c(C)c2c1[nH]c1ccccc12`: the pIC50 on EGFR is 5.15; with EGFR (mouse), below 4.00. Take `Cc1cccc2c1/C(=C\c1c[nH]cn1)C(=O)N2`: on CDK2, the pIC50 is 5.96.
